The values below come from article PMC9264725 (European Journal of Medicinal Chemistry, 2022).

Like-named read-outs stand apart in the source and are kept apart here.

The test system of one data set is M^Pro. As to conditions: cited from earlier work.
Data set [1] concerns the target M^Pro-eGFP ectopically expressed in 293T cells (Severe acute respiratory syndrome coronavirus 2, UniProt P0DTD1). In words: cell-based. The data set is classed as cell-based, SARS-CoV-2.
Data set [2] concerns SARS-CoV-2 USA-WA1/2020 strain. The data set can be described thus: Plaque reduction neutralization test in Vero E6 cells, USA-WA1/2020. The class given is cell-based. The note with it: PRNT, three days.
Another data set deals with SARS-CoV-2 Delta strain. The data set can be described thus: Plaque reduction neutralization test in Vero E6 cells, Delta. The note with it: PRNT, three days. The data set is classed as cell-based. Background: Plaque reduction counts the foci of infection that form in a cell layer.
The subject of the next data set is SARS-CoV-2 Beta strain. The data set can be described thus: Plaque reduction neutralization test in Vero E6 cells, Beta. The class given is cell-based. The note with it: PRNT, three days.
The conditions of data set [3]: rats, oral administration; cited from earlier work.
A further data set has as its system SARS-CoV-2. The note with it: read-out: EC50 as SARS-CoV-2 inhibitor; cited from earlier work.

Consider `CC(C)(C)NC(=O)N[C@H](C(=O)N1C[C@H]2[C@@H]([C@H]1C(=O)NC(CC1CCC1)C(=O)C(N)=O)C2(C)C)C(C)(C)C` (stereo partly shown) [Boceprevir], for which the IC50 is 8 µM in the data set with M^Pro (read-out: Enzymatic IC50, ref 15) and 4.2 ± 0.6 µM in the data set with M^Pro (read-out: Enzymatic IC50, ref 16).
For `CC(C)[C@H](NC(=O)NC(C)(C)C)C(=O)N[C@@H](CC1CC1)C(=O)N[C@H](C=O)C[C@@H]1CCNC1=O` [MPI39], the EC50 in data set [1] is > 10 µM.
For the molecule `CC(C)(C)CC(=O)N[C@H](C(=O)N1C[C@H]2[C@@H]([C@H]1C(=O)N[C@H](C=O)C[C@@H]1CCNC1=O)C2(C)C)C(C)(C)C` [MPI40], the “Antiviral EC50” value (in data set [2]; in the data set with SARS-CoV-2 Delta strain; in the data set with SARS-CoV-2 Beta strain) was “no inhibition at all tested concentrations” each time.
For the molecule `CC(C)(C)OC(=O)N[C@H](C(=O)N1C[C@H]2[C@@H]([C@H]1C(=O)N[C@H](C=O)C[C@@H]1CCNC1=O)C2(C)C)C(C)(C)C` [MPI43], the “in cellulo potency higher than MPI40” value in data set [1] stood at 20 fold.
For MPI8, in the data set on M^Pro (read-out: IC50 (in vitro potency)), the IC50 is ~0.1 µM. Further, the half-life in data set [3] is given as 1.22 h. Moreover, the EC50 in the data set on SARS-CoV-2 is 0.03 µM.

One may read the IC50 as the midpoint of a concentration-inhibition curve. By EC50 is commonly meant the concentration that produces a half-maximal response. One may read the half-life as the time needed for the level to fall by half in the phase considered.
